Assay results from ChEMBL document CHEMBL1201862, “PubChem BioAssay data set” (2004).
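Each compound was tested at five concentrations against cells in 96-well plates for 48 hours. GI50 marks 50% less growth.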 The source made the active and inactive calls. Cut-off read from the data, not from the text of the source: active = GI50 up to about 1.1 µM and inactive = higher.

Assays:
Assay in all cases: inhibition of tumour cell growth, NCI panel, 48 h
CCRF-CEM = test system: CCRF-CEM
SF-268 = test system: SF-268
U-251 = test system: U-251
A549 = test system: A549
UACC-62 = test system: UACC-62
NCI-H226 = test system: NCI-H226
KM12 = test system: KM12
RXF 393 = test system: RXF 393
SNB-19 = test system: SNB-19
UACC-257 = test system: UACC-257
OVCAR-5 = test system: OVCAR-5
HOP-62 = test system: HOP-62
OVCAR-3 = test system: OVCAR-3
OVCAR-4 = test system: OVCAR-4
SF-295 = test system: SF-295
NCI-H522 = test system: NCI-H522
CAKI-1 = test system: CAKI-1
786-0 = test system: 786-0
SR = test system: SR

Measured: GI50

COC(=O)C(C/C=C(\C)c1ccc(Cl)cc1)C(C)=O (stereo not given)
inactive: CCRF-CEM 30.1 µM | SF-268 48.3 µM | U-251 26.1 µM | A549 31 µM | UACC-62 38.5 µM | NCI-H226 24.6 µM | KM12 37 µM | RXF 393 26.7 µM | SNB-19 > 100 µM | UACC-257 23 µM | OVCAR-5 16.4 µM | HOP-62 > 56 µM | OVCAR-3 32.4 µM | OVCAR-4 27.2 µM | SF-295 39.9 µM | NCI-H522 22.5 µM

Cc1cccc(C(C)C)c1NC(=O)/C(Cc1c([N+](=O)[O-])cccc1[N+](=O)[O-])=N/NC(=O)CC#N
inactive: CCRF-CEM > 100 µM | SF-268 > 100 µM | A549 > 100 µM | CAKI-1 > 100 µM | UACC-62 > 100 µM | NCI-H226 > 100 µM | KM12 > 100 µM | RXF 393 > 100 µM | SNB-19 > 100 µM | OVCAR-5 > 100 µM | OVCAR-3 > 100 µM | 786-0 > 100 µM | SF-295 > 100 µM | NCI-H522 > 100 µM

CC1CN=C(N(C(=O)Nc2ccccc2)C2CCCCC2)S1 (stereo not given)
inactive: CCRF-CEM 20.7 µM | SF-268 17.6 µM | U-251 16.9 µM | A549 16.7 µM | CAKI-1 12.4 µM | KM12 16.1 µM | SNB-19 29.2 µM | UACC-257 16 µM | OVCAR-5 14.7 µM | SR 15.9 µM | HOP-62 41.2 µM | OVCAR-3 17.7 µM | OVCAR-4 14.5 µM | 786-0 17.3 µM | SF-295 16.7 µM

CCOC(=O)c1c(N)sc2c1C(C(=O)OCC)CCC2 (stereo not given)
inactive: CCRF-CEM > 100 µM | U-251 > 100 µM | A549 > 100 µM | UACC-62 > 100 µM | NCI-H226 > 100 µM | KM12 > 100 µM | RXF 393 > 100 µM | SNB-19 > 100 µM | UACC-257 > 100 µM | OVCAR-5 > 100 µM | SR 66.7 µM | HOP-62 > 100 µM | 786-0 > 100 µM

c1ccc2c(c1)CCCC/C2=N/OCC1CO1 (stereo not given)
inactive: CCRF-CEM 46.5 µM | SF-268 58.3 µM | U-251 72.3 µM | A549 56.4 µM | NCI-H226 35.3 µM | KM12 35.9 µM | RXF 393 53.6 µM | UACC-257 46.5 µM | SR 26.4 µM | SF-295 58.7 µM

CCCCCCCSc1nc2c(C(=O)OCC)ncn2c2ccccc12
inactive: CCRF-CEM > 100 µM | SF-268 > 100 µM | U-251 > 100 µM | UACC-62 > 100 µM | NCI-H226 > 100 µM | KM12 > 100 µM | RXF 393 > 100 µM | UACC-257 > 100 µM | OVCAR-5 > 100 µM | SR > 100 µM | HOP-62 43.3 µM | OVCAR-3 > 100 µM | SF-295 91.8 µM

Cc1csc(/N=C(/NCCN2CCOCC2)Nc2nc(C)cs2)n1
inactive: CCRF-CEM > 100 µM | SF-268 > 100 µM | U-251 > 100 µM | A549 > 100 µM | CAKI-1 > 76.2 µM | UACC-62 > 100 µM | NCI-H226 > 100 µM | KM12 > 100 µM | RXF 393 > 100 µM | SNB-19 > 100 µM | UACC-257 > 100 µM | OVCAR-5 > 100 µM | HOP-62 > 100 µM | OVCAR-3 > 100 µM | OVCAR-4 > 100 µM | SF-295 > 80.2 µM | NCI-H522 > 100 µM

CN(C)CCC(O)(c1ccccc1)C(O)(CCN(C)C)c1ccccc1 (stereo not given)
inactive: CCRF-CEM > 100 µM | SF-268 > 100 µM | U-251 > 100 µM | A549 > 100 µM | CAKI-1 > 100 µM | UACC-62 > 100 µM | KM12 > 100 µM | SNB-19 > 100 µM | UACC-257 22.3 µM | OVCAR-5 > 100 µM | HOP-62 > 100 µM | OVCAR-3 > 100 µM | OVCAR-4 > 100 µM | 786-0 > 100 µM | SF-295 53.7 µM | NCI-H522 > 100 µM

N#C/C(=C1/Sc2c(nc[nH]c2=O)N1c1ccccc1)c1nc2ccccc2[nH]1
inactive: CCRF-CEM > 100 µM | SF-268 > 100 µM | U-251 > 100 µM | A549 > 100 µM | CAKI-1 > 100 µM | UACC-62 > 100 µM | KM12 > 100 µM | SNB-19 > 100 µM | UACC-257 > 100 µM | OVCAR-5 > 100 µM | SR > 100 µM | HOP-62 > 100 µM | OVCAR-3 > 100 µM | OVCAR-4 > 100 µM | SF-295 > 100 µM | NCI-H522 > 100 µM

O=C(c1nc2ccc(Cl)cc2nc1O)C(O)c1ccccc1 (stereo not given)
inactive: CCRF-CEM 2.32 µM | SF-268 77.1 µM | U-251 > 10 µM | A549 35.2 µM | CAKI-1 65.5 µM | UACC-62 96.8 µM | NCI-H226 84.7 µM | KM12 51.2 µM | SNB-19 > 100 µM | UACC-257 > 100 µM | OVCAR-5 > 100 µM | SR 13 µM | HOP-62 > 100 µM | OVCAR-3 32.8 µM | OVCAR-4 14.3 µM | 786-0 > 100 µM | SF-295 > 100 µM | NCI-H522 10.9 µM

C/C(=N\NS(=O)(=O)c1ccc(C)cc1)c1cc2ccccc2n1C
inactive: CCRF-CEM > 100 µM | SF-268 66.2 µM | U-251 63.8 µM | A549 > 100 µM | UACC-62 76.2 µM | KM12 > 100 µM | SNB-19 69.8 µM | UACC-257 > 100 µM | SR > 100 µM | HOP-62 > 100 µM | OVCAR-4 > 100 µM | 786-0 68.7 µM | SF-295 > 100 µM | NCI-H522 > 100 µM

C/C=C/C1=CC(=O)C(O)C1O (stereo not given)
inactive: CCRF-CEM 22.7 µM | SF-268 26.5 µM | U-251 44.8 µM | A549 29 µM | CAKI-1 14.5 µM | UACC-62 26.6 µM | NCI-H226 24.1 µM | KM12 15.3 µM | RXF 393 15.1 µM | SNB-19 37.2 µM | UACC-257 29.4 µM | OVCAR-5 39.7 µM | HOP-62 47.6 µM | OVCAR-3 24.5 µM | OVCAR-4 37.1 µM | SF-295 44.7 µM | NCI-H522 5.86 µM

C=CC(C)C1(CCCOCc2ccccc2)C(=S)N2CCC3(CC24CCCC14)OCCO3 (stereo not given)
inactive: CCRF-CEM 6.41 µM | SF-268 5.93 µM | U-251 34.1 µM | A549 16 µM | CAKI-1 > 100 µM | UACC-62 > 100 µM | NCI-H226 36.6 µM | KM12 12.9 µM | RXF 393 6.46 µM | SNB-19 24.5 µM | UACC-257 9.68 µM | OVCAR-5 > 100 µM | OVCAR-3 6.76 µM | OVCAR-4 9.46 µM | SF-295 53.2 µM | NCI-H522 7.31 µM
